The values below come from patent US20120270935A1, “FORMULATIONS” (priority 2009, published 2012).

The test system of assay [1] is P. acnes NCTC 737. As to the kind of experiment: Disc diffusion assay (DDA). The class given is cell-based, Propionibacterium acnes. The settings on record: 200 μg compound per disc; DMSO. How it is done:
(§1) The first test micro-organism used was Propionibacterium acnes NCTC 737. This is a propionibacterial strain and is the type strain of the […]; it is fully susceptible to antibiotics.
(§2) The propionibacteria were cultured and maintained on Wilkins-Chalgren Anaerobe Medium (agar and broth) at pH 6.0; all cultures were incubated anaerobically at 37° C. for 72 hours.
This is an internationally recognised standard method for qualitatively assessing the antimicrobial activity of a compound.
A sterile paper disc was impregnated with a sample of the test compound in a suitable solvent and 30 minutes allowed for the solvents to evaporate (where possible). The disc was then placed on an agar plate onto which the test micro-organism had been inoculated. The plate was then incubated under the conditions described above, following which it was examined visually for signs of microbial growth. If the test compound had antimicrobial activity, a circular zone of no growth would be obtained around the disc. The diameter of this zone of “inhibition” was measured using a ProtoCOL™ automated zone sizer (Synbiosis, Cambridge, UK). In general, a greater diameter and/or area of the zone of inhibition indicates a greater antimicrobial activity in the relevant test compound, although other factors such as test compound mobility through the agar gel may also influence the result.
(§3) DDA assays, as described above, were carried out using as the test formulation the gel prepared in Example 2B above. Also tested was the Example 2B gel minus the Klucel™ thickener, which was also subjected to MIC and MBC assays. For the DDAs, which were performed in triplicate, 100 μl of the relevant formulation was loaded onto each disc, and zones of inhibition were recorded after 3 days' anaerobic incubation at 37° C. The MIC and MBC tests were performed in duplicate and the results recorded after 3 days and 7 days respectively, post-subculture onto drug-free medium. […]

Assay [2] deals with S. aureus ATCC 29213. As to the kind of experiment: MBC assay. The settings on record: Mueller-Hinton broth pH 7.0. In kind it is cell-based, Staphylococcus aureus. The source says: (§4) (a) staphylococci. The Staphylococcus aureus strain used was ATCC 29213. S. aureus and other staphylococci are common causes of a wide range of skin, skin structure and wound infections; S. aureus is also known to exacerbate eczema. The ATCC 29213 strain is known to be susceptible to beta-lactam antibiotics such as methicillin. The Staphylococcus epidermidis strain used was NCTC 11047. Staph. epidermidis forms part of the resident flora of skin and is an opportunistic pathogen which can cause biofilms to grow for instance on plastic surgical implants such as catheters. Unless otherwise stated, the staphylococci were cultured and maintained on Mueller-Hinton Medium (agar and broth) at pH 7.2; cultures were incubated aerobically at 37° C. for 19-20 hours, at pH 7 (±0.2). (b) C. striatum NCTC 764. Corynebacterium striatum is closely related to organisms (aerobic diphtheroids of the genus Corynebacterium) that cause body odour. It was cultured and maintained on Mueller-Hinton medium (agar and broth). All cultures were incubated aerobically at 37° C. for 72 hours, at pH 7 (±0.2). (c) streptococci. The strains tested were S. mutans ATCC 25175 and S. pyogenes ATCC 12344. S. mutans is a Gram-positive, microaerophilic bacterium which plays a significant role in dental caries and in infective endocarditis. Streptococcus pyogenes is associated with skin, soft tissue, burn and wound infections. S. mutans was cultured and maintained on Wilkins-Chalgren Anaerobe medium+1 g/L glucose (agar and broth); it was incubated in air at 37° C. for 48 hours, at pH 7 (±0.2) with 5% carbon dioxide. S. pyogenes was cultured and maintained on Mueller-Hinton medium (broth and agar) and was incubated under the same conditions as S. mutans. […]
(§5) Example 8 was repeated (except for the supplemented DDA assays), using S. aureus ATCC 29213 as the test organism. […] In the DDA assays, 200 μg is of each compound was loaded onto each disc: the culture medium was Mueller-Hinton agar at pH 7.0, and results were recorded after overnight incubation at 37° C. in air. […]

The subject of assay [3] is P. acnes NCTC 737. Briefly: Minimum inhibitory concentration (MIC) assay, broth microtitre. In kind it is cell-based, Propionibacterium acnes. The note with it: compound in DMSO; triplicate. How it is done: as §1, §2
This is a standard international method for quantitatively assessing the antimicrobial activity of a compound in a liquid medium. The method used a sterile 96-well microtitre plate, capable of holding about 200 μl of liquid per well. The wells contained liquid culture medium and ranges of decreasing concentrations of the relevant test compound in doubling dilutions (eg 1000, 500, 250, 125 . . . μg/ml, etc. down to 0.49 μg/ml). The culture medium was as described above.
The wells were inoculated with a liquid suspension of freshly grown micro-organism and incubated under the conditions described above. After incubation, the microtitre plate was examined visually (with the aid of a light box) for cloudiness in each well, which would indicate microbial growth. The MIC value was recorded as the lowest concentration of test compound required to inhibit microbial growth, ie the lowest concentration for which the liquid in the well remained clear.
The assays included both negative (culture medium with no micro-organisms) and positive (culture medium plus diluting solvent plus micro-organism) controls.
as §3

Assay [4] deals with S. aureus ATCC 29213. As to the kind of experiment: Disc diffusion assay (DDA). The class given is cell-based, Staphylococcus aureus. The settings on record: 200 μg per disc; Mueller-Hinton agar pH 7.0; overnight at 37° C. in air.
Excerpt: as §4, with “infections.” for “infections. S. mutans was cultured and maintained on Wilkins-Chalgren Anaerobe medium+1 g/L glucose (agar and broth); it was incubated in air at 37° C. for 48 hours, at pH 7 (±0.2) with 5% carbon dioxide. S. pyogenes was cultured and maintained on Mueller-Hinton medium (broth and agar) and was incubated under the same conditions as S. mutans.”
(§6) A sterile paper disc was impregnated with a sample of the test compound in a suitable solvent and 30 minutes allowed for the solvents to evaporate (where possible). […] The diameter of this zone of “inhibition” was measured using a ProtoCOL™ automated zone sizer (Synbiosis, Cambridge, UK). […]
as §5

Assay [5] has as its system C. striatum NCTC 764. As to the kind of experiment: MBC assay. In kind it is cell-based, Corynebacterium striatum. The note with it: triplicate. The source says: (a) staphylococci. The Staphylococcus aureus strain used was ATCC 29213. S. aureus and other staphylococci are common causes of a wide range of skin, skin structure and wound infections; S. aureus is also known to exacerbate eczema. The ATCC 29213 strain is known to be susceptible to beta-lactam antibiotics such as methicillin. The Staphylococcus epidermidis strain used was NCTC 11047. Staph. epidermidis forms part of the resident flora of skin and is an opportunistic pathogen which can cause biofilms to grow for instance on plastic surgical implants such as catheters. Unless otherwise stated, the staphylococci were cultured and maintained on Mueller-Hinton Medium (agar and broth) at pH 7.2; cultures were incubated aerobically at 37° C. for 19-20 hours, at pH 7 (±0.2). (b) C. striatum NCTC 764. Corynebacterium striatum is closely related to organisms (aerobic diphtheroids of the genus Corynebacterium) that cause body odour. It was cultured and maintained on Mueller-Hinton medium (agar and broth). All cultures were incubated aerobically at 37° C. for 72 hours, at pH 7 (±0.2). (c) streptococci. The strains tested were S. mutans ATCC 25175 and S. pyogenes ATCC 12344. S. mutans is a Gram-positive, microaerophilic bacterium which plays a significant role in dental caries and in infective endocarditis. Streptococcus pyogenes is associated with skin, soft tissue, burn and wound infections. S. mutans was cultured and maintained on Wilkins-Chalgren Anaerobe medium+1 g/L glucose (agar and broth); it was incubated in air at 37° C. for 48 hours, at pH 7 (±0.2) with 5% carbon dioxide. S. pyogenes was cultured and maintained on Mueller-Hinton medium (broth and agar) and was incubated under the same conditions as S. mutans.
(§7) This assay, normally carried out after an MIC assay, determines the minimum concentration of a compound that is lethal to the micro-organism being tested.
These samples were then individually sub-cultured on antibiotic-free agar medium, under the incubation conditions described above. Following incubation they were examined visually for microbial growth. […]

Assay [6] has as its system P. acnes NCTC 737. As to the kind of experiment: Minimum bactericidal concentration (MBC) assay. The class given is cell-based, Propionibacterium acnes. The note with it: compound in DMSO; triplicate. How it is done:
as §1, §2, §7
These samples were then individually sub-cultured on antibiotic-free agar medium, under the incubation conditions described above. Following incubation they were examined visually for microbial growth.
DDA assays, as described above, were carried out using as the test formulation the gel prepared in Example 2B above. Also tested was the Example 2B gel minus the Klucel™ thickener, which was also subjected to MIC and MBC assays. For the DDAs, which were performed in triplicate, 100 μl of the relevant formulation was loaded onto each disc, and zones of inhibition were recorded after 3 days' anaerobic incubation at 37° C. The MIC and MBC tests were performed in duplicate and the results recorded after 3 days and 7 days respectively, post-subculture onto drug-free medium.
The compounds copper (II) usnate (Just for Today Ltd), sodium usnate (Yick-Vic Chemicals) and usnic acid (Sigma-Aldrich) were tested against P. acnes NCTC 737, using MIC, MBC and DDA assays as described above. For copper usnate and usnic acid, supplemented DDA assays were also carried out. DMSO was used as the solvent for all three test compounds. For the DDAs, 200 μg of the relevant test compound was loaded onto each disc. The MIC and MBC assays were conducted in triplicate, as were the DDAs for copper usnate.

Assay [7] concerns C. striatum NCTC 764. Briefly: MIC assay. The settings on record: triplicate. In kind it is cell-based, Corynebacterium striatum.
Excerpt: as §4, with “dioxide.” for “dioxide. S. pyogenes was cultured and maintained on Mueller-Hinton medium (broth and agar) and was incubated under the same conditions as S. mutans.”
(§8) This is a standard international method for quantitatively assessing the antimicrobial activity of a compound in a liquid medium. […]
(§9) The wells were inoculated with a liquid suspension of freshly grown micro-organism and incubated under the conditions described above. […] The MIC value was recorded as the lowest concentration of test compound required to inhibit microbial growth, ie the lowest concentration for which the liquid in the well remained clear. […]

Assay [8] concerns S. aureus ATCC 29213. As to the kind of experiment: MIC assay. The class given is cell-based, Staphylococcus aureus. The settings on record: Mueller-Hinton broth pH 7.0.
Excerpt: as §4, with “endocarditis.” for “endocarditis. Streptococcus pyogenes is associated with skin, soft tissue, burn and wound infections. S. mutans was cultured and maintained on Wilkins-Chalgren Anaerobe medium+1 g/L glucose (agar and broth); it was incubated in air at 37° C. for 48 hours, at pH 7 (±0.2) with 5% carbon dioxide. S. pyogenes was cultured and maintained on Mueller-Hinton medium (broth and agar) and was incubated under the same conditions as S. mutans.”
as §8, §9, §5

Assay [9] relates to C. striatum NCTC 764. Briefly: Disc diffusion assay (DDA). In kind it is cell-based, Corynebacterium striatum. The settings on record: 200 μg per disc; single plates.
Excerpt: (a) staphylococci. The Staphylococcus aureus strain used was ATCC 29213. S. aureus and other staphylococci are common causes of a wide range of skin, skin structure and wound infections; S. aureus is also known to exacerbate eczema. The ATCC 29213 strain is known to be susceptible to beta-lactam antibiotics such as methicillin. The Staphylococcus epidermidis strain used was NCTC 11047. Staph. epidermidis forms part of the resident flora of skin and is an opportunistic pathogen which can cause biofilms to grow for instance on plastic surgical implants such as catheters. Unless otherwise stated, the staphylococci were cultured and maintained on Mueller-Hinton Medium (agar and broth) at pH 7.2; cultures were incubated aerobically at 37° C. for 19-20 hours, at pH 7 (±0.2). (b) C. striatum NCTC 764. Corynebacterium striatum is closely related to organisms (aerobic diphtheroids of the genus Corynebacterium) that cause body odour. It was cultured and maintained on Mueller-Hinton medium (agar and broth). All cultures were incubated aerobically at 37° C. for 72 hours, at pH 7 (±0.2). (c) streptococci. […]
as §6

Structures are written as SMILES.

As for `CC(=O)C1=C([O-])C=C2Oc3c(C(C)=O)c(O)c(C)c(O)c3[C@]2(C)C1=O.[Na+]` [Sodium usnate, sodium usnate], the “DDA zone diameter, unsupplemented medium” value with P. acnes NCTC 737 [1] amounted to 57.9 mm. The MBC against S. aureus ATCC 29213 [2] stood at 250 µg/mL; in the assay on C. striatum NCTC 764 [5], 125 µg/mL; in the assay with P. acnes NCTC 737 [6], 0.98 µg/mL. The results for the MIC against P. acnes NCTC 737 [3], against C. striatum NCTC 764 [7] and against S. aureus ATCC 29213 [8] were 0.49 µg/mL, 3.9 µg/mL and 7.8 µg/mL, respectively. For the same molecule, the DDA zone diameter stood at 15.0 mm with S. aureus ATCC 29213 [4] and 20.0 mm with C. striatum NCTC 764 [9].
